# From paper PMC8496750, “Identification of the organic anion transporting polypeptides responsible for the hepatic uptake of the major metabolite of epyrifenacil, S‐3100‐CA, in mice” (Pharmacology Research & Perspectives, 2021)
# Legend:
# human OATP1B3 = biological target: T1, human OATP1B3 (Homo sapiens, UniProt Q9NPD5); assay: Uptake assay for radiolabeled substrates, human OATP1B3 expressing 293FT cells; assay type: in vitro ADME; conditions: 10‐min incubation
# T1 construct: expressed in transfected cells; host or cells: 293FT cells
# T1 sequence (Q9NPD5 1-702): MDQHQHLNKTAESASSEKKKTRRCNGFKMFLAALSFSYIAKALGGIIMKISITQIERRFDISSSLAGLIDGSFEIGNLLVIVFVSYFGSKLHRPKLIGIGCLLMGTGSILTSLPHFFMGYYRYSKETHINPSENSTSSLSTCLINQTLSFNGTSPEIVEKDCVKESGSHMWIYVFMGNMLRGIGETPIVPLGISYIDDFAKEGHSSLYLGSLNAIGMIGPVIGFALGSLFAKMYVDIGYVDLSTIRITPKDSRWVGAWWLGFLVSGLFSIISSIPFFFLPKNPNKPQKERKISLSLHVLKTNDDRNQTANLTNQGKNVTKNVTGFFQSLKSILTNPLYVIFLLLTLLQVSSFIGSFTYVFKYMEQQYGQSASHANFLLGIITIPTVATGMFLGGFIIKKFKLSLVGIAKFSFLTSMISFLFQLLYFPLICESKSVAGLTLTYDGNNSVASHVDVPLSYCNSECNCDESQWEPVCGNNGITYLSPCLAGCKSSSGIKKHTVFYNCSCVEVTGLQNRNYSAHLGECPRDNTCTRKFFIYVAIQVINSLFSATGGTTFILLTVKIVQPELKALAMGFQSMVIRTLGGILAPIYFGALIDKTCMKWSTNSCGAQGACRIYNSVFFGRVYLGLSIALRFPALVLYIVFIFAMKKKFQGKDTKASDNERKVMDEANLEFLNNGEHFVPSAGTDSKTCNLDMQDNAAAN
# Procedure: (§1) 293FT cells were purchased from Thermo Fisher Scientific, Inc.. The cells were grown in Dulbecco's modified Eagle medium (supplemented with 4.5 g/L glucose and 2 mM L‐glutamine) at 37°C, 5% CO2, and 95% humidity. The cells were passaged 3 times per week by harvesting cells using trypsin and plating at a density of 1.0 × 10^4 cells/cm^2 in a 10 cm cell culture plate for maintenance culture. The 293FT cells were detached using trypsin and re‐seeded at a density of 2.5 × 10^4 cells/cm^2 in BioCoat™ Collagen I 6‐well plates (Corning Inc.) for transfection and then treated with 1.2 μg of plasmid vector and 3.2 μl of Lipofectamine™ 2000 Transfection Reagent (Thermo Fisher Scientific, Inc.) according to the manufacturer's instructions. After a 3‐h treatment, the transfection medium was replaced with a fresh cell culture medium and incubated at 37°C with 95% humidity and 5% CO2 until ready for the assay.
# (§2) Transport experiments were conducted approximately 24 h post‐transfection. The experiments were initiated by aspirating culture medium and addition of pre‐warmed radiolabeled substrate solution (final 1.0% of acetonitrile or 0.9% of ethanol in phosphate‐buffered saline (PBS[−])) to each well. After a 10‐min incubation, cells were washed twice with 1 ml of ice‐cold PBS(−) and lysed with 700 μl of 1.0 M NaOH for 3 h or more at room temperature. The lysate was transferred to a 1.5‐ml tube, and neutralized with 350 μl of 2.0 M HCl and 350 μl of 2.0% sodium dodecyl sulfate (SDS) solution. From the lysate, 1.0 ml was transferred to a vial containing 10 ml of Emulsifier Scintillator Plus to measure the radioactivity in the LSC. The protein concentration of the cell lysate was also measured using a Pierce™ BCA Protein Assay Kit (Thermo Fisher Scientific, Inc.), which was used to normalize, according to the cell number, the radioactivity in the cell lysate extract. The protein assay was performed in duplicate. Each sample type was assayed in triplicate wells, and each run was performed twice. When the difference in mean uptake between OATP expressing cells and mock cells was more than 2 times, the OATP was judged to be involved in transportation of the substrate. […] Each sample type was assayed in triplicate wells.
# mouse Oatp2b1 = biological target: T2, mouse Oatp2b1 (Mus musculus, UniProt Q8BXB6); assay: Uptake assay for radiolabeled substrates, mouse Oatp2b1 expressing 293FT cells; conditions: 10‐min incubation
# T2 sequence (Q8BXB6 1-683): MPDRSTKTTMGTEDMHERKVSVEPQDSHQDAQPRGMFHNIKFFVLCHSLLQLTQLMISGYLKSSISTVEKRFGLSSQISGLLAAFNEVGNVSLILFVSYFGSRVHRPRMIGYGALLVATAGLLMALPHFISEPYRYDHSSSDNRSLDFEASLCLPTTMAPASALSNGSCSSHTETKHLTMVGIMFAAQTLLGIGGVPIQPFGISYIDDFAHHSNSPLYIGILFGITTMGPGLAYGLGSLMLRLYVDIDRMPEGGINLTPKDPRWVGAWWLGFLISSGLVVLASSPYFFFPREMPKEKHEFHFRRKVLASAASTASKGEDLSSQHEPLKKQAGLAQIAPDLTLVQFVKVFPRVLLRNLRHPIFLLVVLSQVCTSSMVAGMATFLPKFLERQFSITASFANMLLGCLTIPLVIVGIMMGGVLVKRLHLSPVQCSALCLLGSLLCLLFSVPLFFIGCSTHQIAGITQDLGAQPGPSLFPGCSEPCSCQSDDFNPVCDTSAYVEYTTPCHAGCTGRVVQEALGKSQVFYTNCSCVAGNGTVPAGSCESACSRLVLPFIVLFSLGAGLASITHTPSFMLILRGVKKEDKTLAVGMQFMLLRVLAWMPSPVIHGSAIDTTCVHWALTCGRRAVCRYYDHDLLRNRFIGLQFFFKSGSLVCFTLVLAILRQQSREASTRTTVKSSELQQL
# Procedure: as §1, §2
# rat Oatp1a1 = biological target: T3, rat Oatp1a1 (Rattus norvegicus, UniProt P46720); assay: Uptake assay for radiolabeled substrates, rat Oatp1a1 expressing 293FT cells; assay type: in vitro ADME; conditions: for Ratio of uptake amount relative to the uptake into mock cells: 10‐min incubation
# T3 construct: expressed in transfected cells; host or cells: 293FT cells
# T3 sequence (P46720 1-670): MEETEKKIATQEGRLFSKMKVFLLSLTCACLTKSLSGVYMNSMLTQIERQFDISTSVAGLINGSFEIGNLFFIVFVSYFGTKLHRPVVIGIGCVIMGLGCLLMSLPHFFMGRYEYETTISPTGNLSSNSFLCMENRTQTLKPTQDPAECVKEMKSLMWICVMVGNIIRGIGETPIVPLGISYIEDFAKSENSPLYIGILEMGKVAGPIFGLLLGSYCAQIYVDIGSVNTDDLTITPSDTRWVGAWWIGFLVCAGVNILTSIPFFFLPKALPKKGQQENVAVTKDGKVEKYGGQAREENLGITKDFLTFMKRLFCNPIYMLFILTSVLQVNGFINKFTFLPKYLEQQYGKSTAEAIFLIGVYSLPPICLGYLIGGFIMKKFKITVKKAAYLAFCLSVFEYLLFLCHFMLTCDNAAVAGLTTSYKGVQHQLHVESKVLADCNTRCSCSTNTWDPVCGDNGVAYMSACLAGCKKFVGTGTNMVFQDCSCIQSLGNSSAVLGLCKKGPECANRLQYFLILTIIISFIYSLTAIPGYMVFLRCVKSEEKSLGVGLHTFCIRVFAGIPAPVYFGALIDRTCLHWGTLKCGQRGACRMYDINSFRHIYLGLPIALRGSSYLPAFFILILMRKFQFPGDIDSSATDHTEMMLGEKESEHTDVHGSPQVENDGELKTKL
# Procedure: as §1, §2
SMILES,Ratio of uptake amount relative to the uptake into mock cells (human OATP1B3; Run_1),Ratio of uptake amount relative to the uptake into mock cells (human OATP1B3; Run_2),Ratio of uptake amount relative to the uptake into mock cells (mouse Oatp2b1; Run_1),Ratio of uptake amount relative to the uptake into mock cells (mouse Oatp2b1; Run_2),Ratio of uptake amount relative to the uptake into mock cells (rat Oatp1a1; Run_1),Ratio of uptake amount relative to the uptake into mock cells (rat Oatp1a1; Run_2),"Uptake, times higher than in mock cells (rat Oatp1a1)"
"C[C@]12CC[C@@H]3c4ccc(OS(=O)(=O)O)cc4CC[C@H]3[C@@H]1CCC2=O [E3S, Estrone 3‐sulfate]",2.7,3.3,2.9,3.9,28.6,13.6,
"C[C@]12CC[C@@H]3c4ccc(O)cc4CC[C@H]3[C@@H]1CC[C@@H]2O[C@@H]1O[C@H](C(=O)O)[C@@H](O)[C@H](O)[C@H]1O [E217βG, Estradiol 17β‐D‐glucuronide]",19.3,12.9,4.1,2.0,59.1,65.4,> 50 times
Cn1c(C(F)(F)F)cc(=O)n(-c2cc(Oc3cccnc3OCC(=O)O)c(Cl)cc2F)c1=O [S‐3100‐CA],3.1,5.1,2.4,4.0,11.7,8.7,
